Assay in all cases: NCI tumour cell line growth inhibition, 48 h
Experiment [1] concerns BT-549 breast.
The test system of experiment [2] is HL-60(TB) leukemia.
Experiment [3] has as its system IGROV1 ovarian.
In experiment [4] the test system is K-562 leukemia.
Experiment [5] concerns MDA-MB-231 breast.
For experiment [6], the system named is SF-295 CNS.
Experiment [7] has as its system SF-539 CNS.
The subject of experiment [8] is SR leukemia.
In experiment [9] the test system is UACC-257 melanoma.
Experiment [10] deals with UACC-62 melanoma.

Experimental findings from PubChem BioAssay (NCI) are described below.

“And” between values parts separate entries of the source, which are not always exact repeats. Identical values can stand only once.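 Exposure lasted 48 hours, with cells grown in 96-well plates and compounds tested at five concentrations. GI50 is the concentration that inhibits growth by half. TGI: concentration producing complete growth inhibition.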 Bounds are passed on as bounds.

In the case of `Nc1ccn(C2OC(COP(=O)(O)O)C(O)C2O)c(=O)n1` (stereo not given), the TGI was above 100 µM in [1]; 6.48 µM in experiment [2]; above 100 µM in [3]; above 100 µM in [4]; above 100 µM in [5]; above 100 µM in experiment [6]. Moreover, the TGI in [7] was above 30.2 µM; in experiment [8] it was above 44.7 µM; in experiment [9], above 100 µM; in experiment [10], above 71.3 µM.
For the compound `CCOC(=O)CCc1c(C)c2ccc(O)cc2oc1=O`, the TGI in experiment [1], in [2], in experiment [3], in experiment [4], in experiment [5] and in experiment [6] was above 100 µM in each case. In addition, the TGI in experiment [7], in experiment [8], in [9] and in [10] was above 100 µM throughout.
Regarding `CCN(CC)CCCC(C)N/C(c1cccc(OC)c1)=c1\c(=O)[nH]n(-c2c3ccccc3nc3ccccc23)c(=O)\c1=C(/NC(C)CCCN(CC)CC)c1cccc(OC)c1` (stereo not given), the GI50 in [1] was 2.15 µM; in experiment [2] it was 2.16 µM; in [3], 1.52 µM; in [4] it was 1.41 µM; in experiment [5], 1.25 µM; in experiment [6], 1.74 µM. Moreover, the GI50 in experiment [7] was 1.67 µM; in [8] it was 1.28 µM; in experiment [9], 1.78 µM; in experiment [10], 1.69 µM. Besides, the TGI in [1] was 4.85 µM; in experiment [2] it was 5.23 µM; in experiment [3] it was 4.99 µM; in experiment [4], 5.64 µM; in experiment [5] it was 3.26 µM; in experiment [6], 3.86 µM. In addition, the TGI stood at 3.21 µM in experiment [7], 5.61 µM in experiment [8], 3.43 µM in [9] and 3.3 µM in [10].
`COc1cc(/C=C2\C[C@H]3[C@@H]4CC=C5C[C@@H](OC(C)=O)CC[C@]5(C)[C@H]4CC[C@]3(C)[C@H]2OC(C)=O)ccc1OCCCn1ccnc1`: the GI50 is 5.68 µM in [1]; 12.7 µM in [2]; 16.8 µM in experiment [3]; 5.59 µM in experiment [4]; 8.2 µM in experiment [5]; 4.77 µM in experiment [6]. The GI50 in experiment [7] was 4.72 µM; in [8], 8.2 µM; in experiment [9], 8.43 µM; in [10], 8.81 µM. The TGI in [1] was 13.6 µM; in [2] it was 34.1 µM; in [3], above 50 µM; in experiment [4], 19.7 µM; in experiment [5] it was 16.6 µM; in [6], 12.4 µM. The TGI in [7] was 12.5 µM; in experiment [8], 36.3 µM; in experiment [9], 17.3 µM; in experiment [10] it was 16.1 µM.
As to `CCOC(=O)c1ccc2[nH]c(Cc3[nH]c4ccc(C(=O)OCC)cc4c3C)c(C)c2c1`, the GI50 in experiment [1] is 11.6 µM; in experiment [2], 3.81 µM; in experiment [3], 2.35 µM; in experiment [4], 0.832 µM; in experiment [5], 2.4 µM; in experiment [6], 1.42 µM. Further, the GI50 in experiment [7] was 1.37 µM; in [8], 0.425 µM; in [9] it was 9.4 µM; in experiment [10] it was 2.21 µM. Also, the TGI in experiment [1] is 37 µM; in [2] it was 46.8 µM; in experiment [3], 17 µM; in experiment [4], 17.5 µM; in [5] it was 12.3 µM; in experiment [6] it was 13.5 µM. Further, the TGI in [7] was 13.3 µM; in experiment [8], 15.1 µM; in experiment [9] it was 46.1 µM; in experiment [10], 25.2 µM.
With `O=C1NC(=O)[C@H]2C3C=CC([C@@H]12)[C@@H]1C(=O)NC(=O)[C@H]31`, the TGI in experiment [1], in [2], in experiment [3], in experiment [4], in experiment [5] and in experiment [6] was above 100 µM throughout. Also, the TGI in experiment [7], in experiment [8], in experiment [9] and in experiment [10] was above 100 µM throughout.
For `OCC1OC(O)C(N=Cc2ccc3c(c2)OCO3)C(O)C1O` (stereo not given), the TGI in experiment [1], in [2], in experiment [3], in experiment [4], in experiment [5] and in experiment [6] was above 100 µM throughout. Besides, the TGI in [7], in experiment [8], in experiment [9] and in [10] was above 100 µM throughout.
`CN(C)c1ccc2[nH]c(O)c(C=Nc3ccc(S(N)(=O)=O)cc3)c2c1`: the GI50 in experiment [1], in experiment [2], in experiment [3], in experiment [4], in [5] and in experiment [6] was above 25 µM throughout. The GI50 in experiment [7] was above 25 µM; in experiment [8] it was 13.5 µM; in [9] it was above 25 µM; in experiment [10], above 25 µM. The TGI in experiment [1], in experiment [2], in [3], in experiment [4], in experiment [5] and in experiment [6] was above 25 µM each time. Also, the TGI in experiment [7], in [8], in experiment [9] and in experiment [10] was above 25 µM each time.
Consider `Cc1cc2c(cc1C)[n+](=O)c(C(=O)c1cccs1)c(C(F)(F)F)n2[O-]`, for which the GI50 was 0.565 µM in experiment [1]; 1.96 µM and 2.54 µM in experiment [2]; 0.683 µM in [3]; 1.43 µM and 2.81 µM in [4]; 1.1 µM and 1.67 µM in experiment [5]; 0.603 µM and 2.89 µM in experiment [6]. The GI50 is 1.39 µM in experiment [7]; 0.924 µM in experiment [8]; 2.4 µM and 2.61 µM in [9]; 3.02 µM and 6.56 µM in experiment [10]. The TGI in experiment [1] was 2.53 µM; in experiment [2], 11 µM and 28.8 µM; in experiment [3], 5.31 µM; in experiment [4], 50 µM and 16.3 µM; in experiment [5] it was 8.54 µM and 8 µM; in experiment [6], 3.34 µM and 12.9 µM. Also, the TGI in experiment [7] is 7.69 µM; in experiment [8] it was 8.11 µM; in experiment [9], 38 µM and 6.55 µM; in experiment [10], 12.8 µM and 21.7 µM.
